# Source: ChEMBL document CHEMBL3885861, “Open TG-GATES”
# Species: Rattus norvegicus
# Assay: Open TG-GATES - Regimen: Daily Repeat
# Format: toxicity, organism-based, Sprague-Dawley
# Set-up: regimen Daily Repeat, gender Male, age 6 weeks
# Conditions: in vivo, sc, 0.02 mg/kg, route subcutaneous injection, dose 20 ug/Kg, dose level Middle; for APTT / Bas / Eos / Fbg / Hb / Ht / Lym / MCH / MCHC / MCV / Mono / Neu / PT / Plat / RBC / Ret / WBC: tissue Blood; for KIDNEY_L / KIDNEY_R / KIDNEY_TOTAL: tissue Kidney; for LIVER: tissue Liver; for A/G / ALP / ALT / AST / BUN / CRE / Ca / Cl / DBIL / GLC / IP / K / LDH / Na / PL / RALB / TBIL / TC / TG / TP / gamma-GTP: tissue Plasma
compound,measurement,setting,value
CC(=O)O.N=C(N)NCCC[C@@H](NC(=O)[C@@H]1CCCN1C(=O)[C@@H]1CSSCCC(=O)N[C@@H](Cc2ccc(O)cc2)C(=O)N[C@@H](Cc2ccccc2)C(=O)N[C@@H](CCC(N)=O)C(=O)N[C@@H](CC(N)=O)C(=O)N1)C(=O)NCC(N)=O [DESMOPRESSIN ACETATE],TERMINAL_BW,"72 h, time 3 day",235.6 g
same,APTT,"72 h, time 3 day",16.2 s
same,Bas,"72 h, time 3 day",0%
same,Eos,"72 h, time 3 day",1%
same,Fbg,"72 h, time 3 day",270.4 mg/dL
same,Hb,"72 h, time 3 day",13.3 g/dL
same,Ht,"72 h, time 3 day",40.4%
same,Lym,"72 h, time 3 day",69.8%
same,MCH,"72 h, time 3 day",21.6 pg
same,MCHC,"72 h, time 3 day",32.8%
same,MCV,"72 h, time 3 day",65.8 fL
same,Mono,"72 h, time 3 day",8.6%
same,Neu,"72 h, time 3 day",20.6%
same,PT,"72 h, time 3 day",11.8 s
same,Plat,"72 h, time 3 day",123.6 x10_4/uL
same,RBC,"72 h, time 3 day",613.8 x10_4/ul
same,Ret,"72 h, time 3 day",8%
same,WBC,"72 h, time 3 day",99.6 x10_2/uL
same,KIDNEY_L,"72 h, time 3 day",1.1 g
same,KIDNEY_R,"72 h, time 3 day",1.1 g
same,KIDNEY_TOTAL,"72 h, time 3 day",2.2 g
same,LIVER,"72 h, time 3 day",10.9 g
same,A/G,"72 h, time 3 day",2
same,ALP,"72 h, time 3 day",1305 IU/L
same,ALT,"72 h, time 3 day",39 IU/L
same,AST,"72 h, time 3 day",72.8 IU/L
same,BUN,"72 h, time 3 day",16.2 mg/dL
same,CRE,"72 h, time 3 day",0.4 mg/dL
same,Ca,"72 h, time 3 day",11.4 mg/dL
same,Cl,"72 h, time 3 day",103 meq/L
same,DBIL,"72 h, time 3 day",0.012 mg/dL
same,GLC,"72 h, time 3 day",193 mg/dL
same,IP,"72 h, time 3 day",7.9 mg/dL
same,K,"72 h, time 3 day",5.3 meq/L
same,LDH,"72 h, time 3 day",205.2 IU/L
same,Na,"72 h, time 3 day",135 meq/L
same,PL,"72 h, time 3 day",157.2 mg/dL
same,RALB,"72 h, time 3 day",3.8 g/dL
same,TBIL,"72 h, time 3 day",0.04 mg/dL
same,TC,"72 h, time 3 day",87.6 mg/dL
same,TG,"72 h, time 3 day",108.8 mg/dL
same,TP,"72 h, time 3 day",5.7 g/dL
same,gamma-GTP,"72 h, time 3 day",1 IU/L
same,TERMINAL_BW,"[…], time 7 day",276.7 g
same,TERMINAL_BW,"[…], time 14 day",325 g
same,TERMINAL_BW,"[…], time 28 day",428.4 g
same,APTT,"[…], time 7 day",16.6 s
same,Bas,"[…], time 7 day",0%
same,Eos,"[…], time 7 day",1.2%
same,Fbg,"[…], time 7 day",263.2 mg/dL
same,Hb,"[…], time 7 day",13 g/dL
same,Ht,"[…], time 7 day",39.8%
same,Lym,"[…], time 7 day",72.2%
same,MCH,"[…], time 7 day",20.8 pg
same,MCHC,"[…], time 7 day",32.7%
same,MCV,"[…], time 7 day",63.6 fL
same,Mono,"[…], time 7 day",6.8%
same,Neu,"[…], time 7 day",20%
same,PT,"[…], time 7 day",12.2 s
same,Plat,"[…], time 7 day",125.6 x10_4/uL
same,RBC,"[…], time 7 day",627 x10_4/ul
same,Ret,"[…], time 7 day",7.1%
same,WBC,"[…], time 7 day",114 x10_2/uL
same,APTT,"[…], time 14 day",17.5 s
same,Bas,"[…], time 14 day",0%
same,Eos,"[…], time 14 day",1.2%
same,Fbg,"[…], time 14 day",253.6 mg/dL
same,Hb,"[…], time 14 day",14.2 g/dL
same,Ht,"[…], time 14 day",43.2%
same,Lym,"[…], time 14 day",72%
same,MCH,"[…], time 14 day",20 pg
same,MCHC,"[…], time 14 day",32.8%
same,MCV,"[…], time 14 day",60.9 fL
same,Mono,"[…], time 14 day",10.6%
same,Neu,"[…], time 14 day",16.6%
same,PT,"[…], time 14 day",12.2 s
same,Plat,"[…], time 14 day",123.2 x10_4/uL
same,RBC,"[…], time 14 day",710.2 x10_4/ul
same,Ret,"[…], time 14 day",6%
same,WBC,"[…], time 14 day",101.6 x10_2/uL
same,APTT,"[…], time 28 day",16.7 s
same,Bas,"[…], time 28 day",0%
same,Eos,"[…], time 28 day",0.8%
same,Fbg,"[…], time 28 day",250 mg/dL
same,Hb,"[…], time 28 day",15 g/dL
same,Ht,"[…], time 28 day",46.3%
same,Lym,"[…], time 28 day",75.8%
same,MCH,"[…], time 28 day",19.3 pg
same,MCHC,"[…], time 28 day",32.5%
same,MCV,"[…], time 28 day",59.4 fL
same,Mono,"[…], time 28 day",6%
same,Neu,"[…], time 28 day",17.4%
same,PT,"[…], time 28 day",11.8 s
same,Plat,"[…], time 28 day",112 x10_4/uL
same,RBC,"[…], time 28 day",780.2 x10_4/ul
same,Ret,"[…], time 28 day",3.5%
same,WBC,"[…], time 28 day",128.4 x10_2/uL
same,KIDNEY_L,"[…], time 7 day",1.2 g
same,KIDNEY_R,"[…], time 7 day",1.2 g
same,KIDNEY_TOTAL,"[…], time 7 day",2.5 g
same,KIDNEY_L,"[…], time 14 day",1.3 g
same,KIDNEY_R,"[…], time 14 day",1.4 g
same,KIDNEY_TOTAL,"[…], time 14 day",2.7 g
same,KIDNEY_L,"[…], time 28 day",1.7 g
same,KIDNEY_R,"[…], time 28 day",1.7 g
same,KIDNEY_TOTAL,"[…], time 28 day",3.4 g
same,LIVER,"[…], time 7 day",12.1 g
same,LIVER,"[…], time 14 day",13.4 g
same,LIVER,"[…], time 28 day",16.1 g
same,A/G,"[…], time 7 day",2
same,ALP,"[…], time 7 day",1103 IU/L
same,ALT,"[…], time 7 day",29.6 IU/L
same,AST,"[…], time 7 day",69.6 IU/L
same,BUN,"[…], time 7 day",15.4 mg/dL
same,CRE,"[…], time 7 day",0.4 mg/dL
same,Ca,"[…], time 7 day",13.4 mg/dL
same,Cl,"[…], time 7 day",100.2 meq/L
same,DBIL,"[…], time 7 day",0.01 mg/dL
same,GLC,"[…], time 7 day",201 mg/dL
same,IP,"[…], time 7 day",7.9 mg/dL
same,K,"[…], time 7 day",5.1 meq/L
same,LDH,"[…], time 7 day",160.2 IU/L
same,Na,"[…], time 7 day",130.8 meq/L
same,PL,"[…], time 7 day",138 mg/dL
same,RALB,"[…], time 7 day",3.6 g/dL
same,TBIL,"[…], time 7 day",0.042 mg/dL
same,TC,"[…], time 7 day",75.8 mg/dL
same,TG,"[…], time 7 day",95 mg/dL
same,TP,"[…], time 7 day",5.5 g/dL
same,gamma-GTP,"[…], time 7 day",1 IU/L
same,A/G,"[…], time 14 day",1.8
same,ALP,"[…], time 14 day",1136 IU/L
same,ALT,"[…], time 14 day",29.4 IU/L
same,AST,"[…], time 14 day",68.2 IU/L
same,BUN,"[…], time 14 day",17.8 mg/dL
same,CRE,"[…], time 14 day",0.4 mg/dL
same,Ca,"[…], time 14 day",10.6 mg/dL
same,Cl,"[…], time 14 day",105.8 meq/L
same,DBIL,"[…], time 14 day",0.014 mg/dL
same,GLC,"[…], time 14 day",190.6 mg/dL
same,IP,"[…], time 14 day",7.3 mg/dL
same,K,"[…], time 14 day",5.3 meq/L
same,LDH,"[…], time 14 day",133.8 IU/L
same,Na,"[…], time 14 day",138.4 meq/L
same,PL,"[…], time 14 day",130.6 mg/dL
same,RALB,"[…], time 14 day",3.7 g/dL
same,TBIL,"[…], time 14 day",0.032 mg/dL
same,TC,"[…], time 14 day",65.2 mg/dL
same,TG,"[…], time 14 day",109.4 mg/dL
same,TP,"[…], time 14 day",5.7 g/dL
same,gamma-GTP,"[…], time 14 day",1 IU/L
same,A/G,"[…], time 28 day",1.6
same,ALP,"[…], time 28 day",834.8 IU/L
same,ALT,"[…], time 28 day",27.4 IU/L
same,AST,"[…], time 28 day",65 IU/L
same,BUN,"[…], time 28 day",18 mg/dL
same,CRE,"[…], time 28 day",0.4 mg/dL
same,Ca,"[…], time 28 day",9.1 mg/dL
same,Cl,"[…], time 28 day",104.2 meq/L
same,DBIL,"[…], time 28 day",0.014 mg/dL
same,GLC,"[…], time 28 day",190 mg/dL
same,IP,"[…], time 28 day",6.7 mg/dL
same,K,"[…], time 28 day",4.9 meq/L
same,LDH,"[…], time 28 day",143.8 IU/L
same,Na,"[…], time 28 day",137.6 meq/L
same,PL,"[…], time 28 day",135.2 mg/dL
same,RALB,"[…], time 28 day",3.7 g/dL
same,TBIL,"[…], time 28 day",0.048 mg/dL
same,TC,"[…], time 28 day",69.4 mg/dL
same,TG,"[…], time 28 day",107.8 mg/dL
same,TP,"[…], time 28 day",6.1 g/dL
same,gamma-GTP,"[…], time 28 day",0.4 IU/L
